Reference: publication PMC8225008, “Development of Non-Ethoxypropanoic Acid Type Cryptochrome Inhibitors with Circadian Molecular Clock-Enhancing Activity by Bioisosteric Replacement” (Pharmaceuticals, 2021)

Columns and labels:
hCRY2 = target: T1, hCRY2 (Homo sapiens, UniProt Q49AN0); experiment: Surface plasmon resonance, CRY2; assay type: binding; settings: SPR, His-tagged CRY2, Langmuir 1:1 model
T1 construct: GST; purchased MyBioSource; host or cells: baculovirus expression system
T1 sequence (Q49AN0 1-593): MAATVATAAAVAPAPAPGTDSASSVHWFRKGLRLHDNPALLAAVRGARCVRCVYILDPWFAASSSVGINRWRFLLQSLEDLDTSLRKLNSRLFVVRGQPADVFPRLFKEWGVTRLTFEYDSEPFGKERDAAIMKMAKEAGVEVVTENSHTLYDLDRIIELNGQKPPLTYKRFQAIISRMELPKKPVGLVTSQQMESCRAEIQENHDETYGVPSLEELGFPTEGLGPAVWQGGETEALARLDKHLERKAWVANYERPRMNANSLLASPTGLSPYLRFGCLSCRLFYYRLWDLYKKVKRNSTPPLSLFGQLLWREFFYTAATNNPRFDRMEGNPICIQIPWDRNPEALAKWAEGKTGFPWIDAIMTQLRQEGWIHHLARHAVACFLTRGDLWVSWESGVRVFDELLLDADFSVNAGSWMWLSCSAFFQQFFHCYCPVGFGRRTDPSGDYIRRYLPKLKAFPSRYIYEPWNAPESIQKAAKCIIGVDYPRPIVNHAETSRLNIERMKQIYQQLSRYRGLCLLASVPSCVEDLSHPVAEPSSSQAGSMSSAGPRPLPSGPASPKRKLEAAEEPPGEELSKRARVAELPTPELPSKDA
Description: We used a ProteOn XPR36 system (Bio-Rad, Hercules, CA, USA) equipped with a HTE sensor chip (high capacity tris-NTA for histidine-tagged […] capture, Bio-Rad) for surface plasmon resonance analyses. Purified target proteins (6xHis- and GST-tagged hCRY1 and hCRY2) were prepared by a baculovirus expression system (MyBioSource, San Diego, CA, USA). Phosphate buffered saline (PBS) plus 0.005% Tween 20 was used as the running buffer. The 6xHis-hCRY1 and 6xHis-hCRY2 proteins were immobilized onto separate channels of a HTE chip by injecting 210 μL protein sample (2.0 μg/mL) into flow cells (30 μL/min) to allow saturation. Serially diluted compound 2d samples (50–800 μM) were prepared in 4% DMSO in TBS-T buffer. […] Recorded resonance units (RU) were normalized and plotted against chemical concentration. […]
(§1) The EC50 values for luciferase reporter assay were calculated based on a logistic four-parametric equation using the mean values of intrinsic activation (SigmaPlot 10.0; Systat Software Inc., San Jose, CA, USA). The IC50 and t1/2 values for the cytochrome P450 inhibition assay and metabolic stability test were calculated by WinNonlin software (Pharsight, Mountain View, CA, USA). Pharmacokinetic parameters were calculated using non-compartmental analysis (WinNonlin v.8.3; Pharsight, Mountain View, CA, USA). […]

CYP2D6 = target: T2, CYP2D6 (Homo sapiens, UniProt P10635); experiment: Cytochrome P450 inhibition assay (cocktail method, human liver microsomes), dextromethorphan O-demethylation; assay type: in vitro ADME
T2 construct: pooled human liver microsomes (HLMs, XTreme 200, XenoTech, Lenexa, KS, USA); tissue XenoTech XTreme 200; host or cells: pooled human liver microsomes
T2 sequence (P10635 whole entry): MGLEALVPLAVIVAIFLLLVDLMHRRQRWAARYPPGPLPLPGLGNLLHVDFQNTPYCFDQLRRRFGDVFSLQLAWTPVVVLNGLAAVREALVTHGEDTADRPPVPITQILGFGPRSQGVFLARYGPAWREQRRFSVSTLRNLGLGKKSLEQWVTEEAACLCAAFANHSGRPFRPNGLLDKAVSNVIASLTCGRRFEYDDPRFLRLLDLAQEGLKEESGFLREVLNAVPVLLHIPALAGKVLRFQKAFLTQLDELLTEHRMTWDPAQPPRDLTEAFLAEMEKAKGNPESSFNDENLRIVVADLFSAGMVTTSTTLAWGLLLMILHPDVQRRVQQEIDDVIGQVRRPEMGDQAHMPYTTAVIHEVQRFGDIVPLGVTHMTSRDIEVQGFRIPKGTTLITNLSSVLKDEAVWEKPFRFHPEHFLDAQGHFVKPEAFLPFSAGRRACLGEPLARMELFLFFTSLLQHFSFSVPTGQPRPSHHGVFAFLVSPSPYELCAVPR
Description: (§2) The inhibitory effects of KS15 and compound 5d on the metabolism of five cytochrome P450 (P450) probe substrates were evaluated using previous methods with slight modifications. The following P450 probe substrates were used: phenacetin (100 μM) for CYP1A2, tolbutamide (100 μM) for CYP2C9, omeprazole (20 μM) for CYP2C19, dextromethorphan (5 μM) for CYP2D6, and midazolam (5 μM) for CYP3A. Incubation mixtures containing pooled human liver microsomes (HLMs, XTreme 200, XenoTech, Lenexa, KS, USA), P450 probe substrates, and KS15 or compound 5d (final concentrations: 0, 0.5, 2, 5, 20, and 50 μM) were preincubated for 5 min at 37 °C. […] After centrifugation at 18,000× g (5 min, 4 °C), supernatant aliquots were analyzed by liquid chromatography-tandem mass spectrometry (LC-MS/MS). […]
(§3) All metabolites and IS were separated on a Kinetex C18 column (100 mm × 2.1 mm, 2.6 μm ID., Phenomenex, Torrance, CA, USA) and analyzed using an LC-MS/MS system (LCMS 8060, Shimadzu, Tokyo, Japan) equipped with an electrospray ionization (ESI) interface. […]
as §1, with “The IC50 and t1/2 values for the cytochrome P450 inhibition assay and metabolic stability test were calculated by WinNonlin software (Pharsight, Mountain View, CA, USA).” left out

CYP2C19 = target: T3, CYP2C19 (Homo sapiens, UniProt P33261); experiment: Cytochrome P450 inhibition assay (cocktail method, human liver microsomes), omeprazole hydroxylation; assay type: in vitro ADME
T3 construct: pooled human liver microsomes (HLMs, XTreme 200, XenoTech, Lenexa, KS, USA); tissue XenoTech XTreme 200; host or cells: pooled human liver microsomes
T3 sequence (P33261 whole entry): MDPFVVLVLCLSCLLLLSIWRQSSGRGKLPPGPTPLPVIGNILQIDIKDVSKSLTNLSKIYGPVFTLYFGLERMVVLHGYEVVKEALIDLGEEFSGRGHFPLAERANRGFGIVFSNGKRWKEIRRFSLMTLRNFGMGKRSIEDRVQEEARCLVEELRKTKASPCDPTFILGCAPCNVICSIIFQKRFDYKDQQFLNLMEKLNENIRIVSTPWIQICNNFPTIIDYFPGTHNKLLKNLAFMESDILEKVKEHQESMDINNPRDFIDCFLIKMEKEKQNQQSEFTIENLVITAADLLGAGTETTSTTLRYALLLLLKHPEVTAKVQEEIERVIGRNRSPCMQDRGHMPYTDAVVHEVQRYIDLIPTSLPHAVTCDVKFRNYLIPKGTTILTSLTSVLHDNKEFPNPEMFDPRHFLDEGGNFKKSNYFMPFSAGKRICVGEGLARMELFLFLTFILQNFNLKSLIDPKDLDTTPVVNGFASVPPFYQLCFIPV
Description: as §2, §3
as §1, with “The IC50 and t1/2 values for the cytochrome P450 inhibition assay and metabolic stability test were calculated by WinNonlin software (Pharsight, Mountain View, CA, USA).” left out

Row | Kd (hCRY2) [µM] | IC50 (CYP2D6) [µM] | IC50 (CYP2C19) [µM] | SMILES
1 | 380 | – | – | CC(=NOCc1ccc([N+](=O)[O-])cc1)c1cccc(OCC(=O)O)c1 [Compound 2d, 2-(3-(1-(((4-nitrobenzyl)oxy)imino)ethyl)phenoxy)acetic acid]
2 | – | > 50 | > 50 | COC(=O)COc1cccc(C(C)=NOCc2ccc([N+](=O)[O-])cc2)c1 [Compound 5d, Methyl 2-(3-(1-(((4-nitrobenzyl)oxy)imino)ethyl)phenoxy)acetate]
